The experiment relates to P388 leukemia ip, CD2F1 mice, survival T/C. The experiment can be described thus: NCI In Vivo Anticancer Drug Screen. Data for tumor model P388 Leukemia (intraperitoneal) in CD2F1 (CDF1) mice. The conditions noted are these: endpoint: median survival time, higher = longer survival. The essentials: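 Mice carrying the transplanted tumor received test compound or vehicle. Survival was recorded in each group, and the value is the treated-group measurement divided by that of the vehicle-treated control group.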

Where [1] appears, read: dose: 100.0 mg/kg/injection, schedule: Q01DX009 (ip), vehicle: saline.
The mark [2] stands for this setting: dose: 200.0 mg/kg/injection, schedule: Q01DX009 (ip), vehicle: saline.
The mark [3] stands for this setting: dose: 50.0 mg/kg/injection, schedule: Q01DX005 (ip), vehicle: saline with Tween-80.
[4] abbreviates: dose: 100.0 mg/kg/injection, schedule: Q01DX005 (ip), vehicle: saline with Tween-80.
[5] abbreviates: dose: 200.0 mg/kg/injection, schedule: Q01DX005 (ip), vehicle: saline with Tween-80.

SMILES strings stand for the structures. Values joined by “and” are separate entries in the source; they are usually repeats but may differ in a detail not shown here. Equal values may be shown once. Toxic doses and inconclusive results are not listed.

On to `CC(=O)C1(O)Cc2c(O)c3c(c(O)c2C(OC2CC(N)C(O)C(C)O2)C1)C(=O)c1ccccc1C3=O` (stereo unspecified), for which the T/C is, setting by setting: (dose: 0.03 mg/kg/injection, schedule: Q01DX009 (ip), vehicle: water) 116 % of control; (dose: 0.1 mg/kg/injection, schedule: Q01DX009 (ip), vehicle: water) 150 % of control and 155 % of control and 158 % of control; (dose: 0.12 mg/kg/injection, schedule: Q01DX005 (ip), vehicle: water) 151 % of control; (dose: 0.15 mg/kg/injection, schedule: Q04DX003 (ip), vehicle: water) 106 % of control; (dose: 0.2 mg/kg/injection, schedule: Q01DX009 (ip), vehicle: water) 167 % of control and 171 % of control and 183 % of control; (dose: 0.21 mg/kg/injection, schedule: Q04DX003 (ip), vehicle: water) 166 % of control. The T/C is 164 % of control (dose: 0.25 mg/kg/injection, schedule: Q01DX005 (ip), vehicle: water); 114 % of control (dose: 0.3 mg/kg/injection, schedule: Q04DX003 (ip), vehicle: water); 170 % of control (dose: 0.36 mg/kg/injection, schedule: Q04DX003 (ip), vehicle: water); 170 % of control (dose: 0.39 mg/kg/injection, schedule: Q01DX009 (ip), vehicle: water); 205 % of control (dose: 0.4 mg/kg/injection, schedule: Q01DX009 (ip), vehicle: water); 180 % of control (dose: 0.5 mg/kg/injection, schedule: Q01DX005 (ip), vehicle: water). Also, the T/C (dose: 0.5 mg/kg/injection, schedule: Q01DX005 (oral), vehicle: water) is 104 % of control; the T/C (dose: 0.6 mg/kg/injection, schedule: Q04DX003 (ip), vehicle: water) was 118 % of control; the T/C (dose: 0.78 mg/kg/injection, schedule: Q01DX009 (ip), vehicle: water) is 173 % of control; the T/C (dose: 1.0 mg/kg/injection, schedule: Q01DX005 (ip), vehicle: water) is 114 % of control; the T/C (dose: 1.0 mg/kg/injection, schedule: Q01DX005 (oral), vehicle: water) was 107 % of control; the T/C (dose: 1.3 mg/kg/injection, schedule: Q01DX001 (ip), vehicle: water) was 97 % of control. In addition, the T/C (dose: 1.8 mg/kg/injection, schedule: Q01DX001 (ip), vehicle: water) is 97 % of control; the T/C (dose: 2.0 mg/kg/injection, schedule: Q01DX005 (oral), vehicle: water) is 112 % of control; the T/C (dose: 2.4 mg/kg/injection, schedule: Q04DX003 (ip), vehicle: water) was 152 % of control and 174 % of control; the T/C (dose: 4.0 mg/kg/injection, schedule: Q01DX005 (oral), vehicle: water) is 152 % of control; the T/C (dose: 4.8 mg/kg/injection, schedule: Q04DX003 (ip), vehicle: water) was 102 % of control and 106 % of control; the T/C (dose: 8.0 mg/kg/injection, schedule: Q01DX005 (oral), vehicle: water) was 107 % of control. Besides, under “dose: 9.6 mg/kg/injection, schedule: Q04DX003 (ip), vehicle: water”, the T/C is 96 % of control.

Turning to `CCCCC(CC)CSCN(CC)CC` (stereo unspecified), the T/C was 100 % of control (dose: 50.0 mg/kg/injection, schedule: Q01DX009 (ip), vehicle: saline); 102 % of control under setting [1]; 112 % of control under setting [2].

As to `CC(C)SCNc1ncnc2c1ncn2C1OC(CO)C(O)C1O` (stereo unspecified), the T/C (dose: 100.0 mg/kg/injection, schedule: Q04DX002 (ip), vehicle: saline with Tween-80) is 98 % of control.

In the case of `CCOC1=NC2C(O1)C1C3C2C13` (stereo unspecified), the T/C reads like this: under setting [3], 103 % of control; under setting [4], 105 % of control; under setting [5], 105 % of control.

Consider `CCOC(=O)/C(=C\c1ccccc1)O/C(=C/c1ccccc1)C(=O)OCC`, for which the T/C reads like this: (dose: 12.5 mg/kg/injection, schedule: Q04DX002 (ip), vehicle: saline with Tween-80) 100 % of control; (dose: 25.0 mg/kg/injection, schedule: Q04DX002 (ip), vehicle: saline with Tween-80) 97 % of control; (dose: 50.0 mg/kg/injection, schedule: Q04DX002 (ip), vehicle: saline with Tween-80) 99 % of control.

In the case of `COc1cc(/C=C(\C)[N+](=O)[O-])cc(Br)c1O`, the T/C is 100 % of control (dose: 100.0 mg/kg/injection, schedule: Q04DX003 (ip), vehicle: saline with Tween-80); 109 % of control (dose: 200.0 mg/kg/injection, schedule: Q04DX003 (ip), vehicle: saline with Tween-80); 94 % of control (dose: 400.0 mg/kg/injection, schedule: Q04DX003 (ip), vehicle: saline with Tween-80).

Regarding `OCCO`, the T/C reads like this: under setting [1], 86 % of control and 90 % of control; under setting [2], 100 % of control and 86 % of control; (dose: 400.0 mg/kg/injection, schedule: Q01DX009 (ip), vehicle: saline) 104 % of control and 100 % of control; (dose: 0.5 % in 0.5 ml injection vol, schedule: Q01DX009 (ip), vehicle: water) 98 % of control; (dose: 1.0 % in 0.5 ml injection vol, schedule: Q01DX009 (ip), vehicle: water) 99 % of control and 107 % of control; (dose: 2.0 % in 0.5 ml injection vol, schedule: Q01DX009 (ip), vehicle: water) 100 % of control and 102 % of control. The T/C (dose: 2.5 % in 0.5 ml injection vol, schedule: Q01DX009 (ip), vehicle: water) is 106 % of control; the T/C (dose: 4.0 % in 0.5 ml injection vol, schedule: Q01DX009 (ip), vehicle: water) is 94 % of control; the T/C (dose: 5.0 % in 0.5 ml injection vol, schedule: Q01DX009 (ip), vehicle: water) is 105 % of control; the T/C (dose: 10.0 % in 0.5 ml injection vol, schedule: Q01DX009 (ip), vehicle: water) is 103 % of control; the T/C (dose: 20.0 % in 0.5 ml injection vol, schedule: Q01DX009 (ip), vehicle: water) is 108 % of control; the T/C (dose: 40.0 % in 0.5 ml injection vol, schedule: Q01DX009 (ip), vehicle: water) is 100 % of control. Besides, the T/C is, setting by setting: (dose: 50.0 % in 0.5 ml injection vol, schedule: Q01DX009 (ip), vehicle: water) 107 % of control; (dose: 80.0 % in 0.5 ml injection vol, schedule: Q01DX009 (ip), vehicle: water) 100 % of control.

With `CC1NC(=O)OC12CCCCC2` (stereo unspecified), the T/C runs as follows: (dose: 25.0 mg/kg/injection, schedule: Q01DX009 (ip), vehicle: saline with Tween-80) 93 % of control; (dose: 50.0 mg/kg/injection, schedule: Q01DX009 (ip), vehicle: saline with Tween-80) 100 % of control.

As to `NC(=O)N=Nc1ccc(Cl)cc1`, the T/C was 104 % of control under setting [3], 101 % of control under setting [4] and 104 % of control under setting [5].

In the case of `CC(C)CNC(=O)c1ccc(OCC(O)CNC(C)(C)C)c(Cl)c1` (stereo unspecified), the T/C is 107 % of control (dose: 100.0 mg/kg/injection, schedule: Q04DX003 (ip), vehicle: Klucel (hydroxypropylcellulose) (HPC)) and 102 % of control (dose: 200.0 mg/kg/injection, schedule: Q04DX003 (ip), vehicle: Klucel (hydroxypropylcellulose) (HPC)).

Take `COC(=N)c1nc2c(N)nc(-c3ccccc3)nc2[nH]c1=O`: the T/C by setting is: (dose: 100.0 mg/kg/injection, schedule: Q01DX009 (ip), vehicle: saline with Tween-80) 98 % of control; (dose: 200.0 mg/kg/injection, schedule: Q01DX009 (ip), vehicle: saline with Tween-80) 98 % of control; (dose: 400.0 mg/kg/injection, schedule: Q01DX009 (ip), vehicle: saline with Tween-80) 97 % of control.

Take `CCOCCOC(=O)c1nn(-c2ccc(Cl)cc2)c2c1C(=O)c1ccccc1C2=O`: the T/C is, setting by setting: (dose: 50.0 mg/kg/injection, schedule: Q01DX005 (ip), vehicle: Klucel (hydroxypropylcellulose) (HPC)) 94 % of control; (dose: 100.0 mg/kg/injection, schedule: Q01DX005 (ip), vehicle: Klucel (hydroxypropylcellulose) (HPC)) 100 % of control; (dose: 200.0 mg/kg/injection, schedule: Q01DX005 (ip), vehicle: Klucel (hydroxypropylcellulose) (HPC)) 101 % of control.

On to `COC(OC)C1(O)CC(C(C)C)OC(=O)N1` (stereo unspecified), for which the T/C by setting is: (dose: 100.0 mg/kg/injection, schedule: Q04DX003 (ip), vehicle: saline) 100 % of control; (dose: 200.0 mg/kg/injection, schedule: Q04DX003 (ip), vehicle: saline) 108 % of control; (dose: 400.0 mg/kg/injection, schedule: Q04DX003 (ip), vehicle: saline) 100 % of control.

As to `O=C1C(=O)C2c3ccccc3C1c1ccccc12`, the T/C by setting is: (dose: 50.0 mg/kg/injection, schedule: Q04DX002 (ip), vehicle: suspension in saline) 101 % of control; (dose: 100.0 mg/kg/injection, schedule: Q04DX002 (ip), vehicle: suspension in saline) 106 % of control; (dose: 200.0 mg/kg/injection, schedule: Q04DX002 (ip), vehicle: suspension in saline) 112 % of control.

The record behind these values is PubChem BioAssay AID330 (DTP/NCI, 2004).
